# Measurements taken from ChEMBL document CHEMBL1201862, “PubChem BioAssay data set” (2004).
#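 48-hour exposure; five concentrations; linearly interpolated endpoints. Here, GI50 denotes the concentration required for 50% inhibition of growth.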 Active and inactive are the calls of the source. Rule as the data show it: active = GI50 up to about 1.1 µM and inactive = higher.
# Legend:
# Test in all cases: NCI tumour cell line growth inhibition, 48 h
# KM12 = system: KM12
# Malme-3M = system: Malme-3M
# SF-268 = system: SF-268
# M14 = system: M14
# HL-60 = system: HL-60
# OVCAR-8 = system: OVCAR-8
# HOP-62 = system: HOP-62
# A549 = system: A549
# COLO 205 = system: COLO 205
# NCI-H226 = system: NCI-H226
# MDA-MB-231 = system: MDA-MB-231
# UACC-257 = system: UACC-257
# PC-3 = system: PC-3
# HCT-15 = system: HCT-15
# SNB-75 = system: SNB-75
# SK-MEL-5 = system: SK-MEL-5
# NCI-H23 = system: NCI-H23
# SF-295 = system: SF-295
# 786-0 = system: 786-0
# OVCAR-5 = system: OVCAR-5
# MCF7 = system: MCF7
# SNB-19 = system: SNB-19
# SF-539 = system: SF-539
# NCI/ADR-RES = system: NCI/ADR-RES
# DU-145 = system: DU-145
# SN12C = system: SN12C
# A498 = system: A498
# RXF 393 = system: RXF 393
# BT-549 = system: BT-549
# UACC-62 = system: UACC-62
# HOP-92 = system: HOP-92
# HCC 2998 = system: HCC 2998
# OVCAR-3 = system: OVCAR-3
# SK-OV-3 = system: SK-OV-3
# CCRF-CEM = system: CCRF-CEM
# HT-29 = system: HT-29
# NCI-H522 = system: NCI-H522
# IGROV-1 = system: IGROV-1
# Hs-578T = system: Hs-578T
# NCI-H460 = system: NCI-H460
# MDA-MB-435 = system: MDA-MB-435
# MOLT-4 = system: MOLT-4
# SW-620 = system: SW-620
# UO-31 = system: UO-31
# SK-MEL-2 = system: SK-MEL-2
# CAKI-1 = system: CAKI-1
# MDA-N = system: MDA-N
# HCT-116 = system: HCT-116
# EKVX = system: EKVX
# T47D = system: T47D
# ACHN = system: ACHN
# RPMI-8226 = system: RPMI-8226
# U-251 = system: U-251
# SK-MEL-28 = system: SK-MEL-28
# LOX IMVI = system: LOX IMVI
# SR = system: SR
# K562 = system: K562
# OVCAR-4 = system: OVCAR-4
# TK-10 = system: TK-10
compound,measurement,setting,value
CN(C)c1ccc(/C=C(\NC(=O)c2ccccc2)C(=O)NCC(=O)O)cc1,GI50,KM12,> 100 µM (inactive)
same,GI50,Malme-3M,> 100 µM (inactive)
same,GI50,SF-268,> 100 µM (inactive)
same,GI50,M14,> 100 µM (inactive)
same,GI50,HL-60,0.0755 µM (active)
same,GI50,OVCAR-8,> 100 µM (inactive)
same,GI50,HOP-62,> 100 µM (inactive)
same,GI50,A549,> 100 µM (inactive)
same,GI50,COLO 205,> 100 µM (inactive)
same,GI50,NCI-H226,> 100 µM (inactive)
same,GI50,MDA-MB-231,> 100 µM (inactive)
same,GI50,UACC-257,> 100 µM (inactive)
same,GI50,PC-3,> 100 µM (inactive)
same,GI50,HCT-15,> 100 µM
same,GI50,SNB-75,> 100 µM (inactive)
same,GI50,SK-MEL-5,> 100 µM (inactive)
same,GI50,NCI-H23,> 100 µM (inactive)
same,GI50,SF-295,> 100 µM (inactive)
same,GI50,786-0,> 100 µM (inactive)
same,GI50,OVCAR-5,> 100 µM (inactive)
same,GI50,MCF7,> 100 µM (inactive)
same,GI50,SNB-19,> 100 µM (inactive)
same,GI50,SF-539,> 100 µM (inactive)
same,GI50,NCI/ADR-RES,> 100 µM (inactive)
same,GI50,DU-145,> 100 µM (inactive)
same,GI50,SN12C,> 100 µM (inactive)
same,GI50,A498,> 100 µM (inactive)
same,GI50,RXF 393,> 100 µM (inactive)
same,GI50,BT-549,> 100 µM (inactive)
same,GI50,UACC-62,> 100 µM (inactive)
same,GI50,HOP-92,> 100 µM (inactive)
same,GI50,HCC 2998,> 100 µM (inactive)
same,GI50,OVCAR-3,> 100 µM (inactive)
same,GI50,SK-OV-3,> 100 µM (inactive)
same,GI50,CCRF-CEM,> 100 µM (inactive)
same,GI50,HT-29,> 100 µM (inactive)
same,GI50,NCI-H522,> 100 µM (inactive)
same,GI50,IGROV-1,> 100 µM (inactive)
same,GI50,Hs-578T,> 100 µM (inactive)
same,GI50,NCI-H460,> 100 µM (inactive)
same,GI50,MDA-MB-435,> 100 µM (inactive)
same,GI50,MOLT-4,> 100 µM (inactive)
same,GI50,SW-620,> 100 µM (inactive)
same,GI50,UO-31,> 100 µM (inactive)
same,GI50,SK-MEL-2,> 100 µM (inactive)
same,GI50,CAKI-1,> 100 µM (inactive)
same,GI50,MDA-N,> 100 µM (inactive)
same,GI50,HCT-116,> 100 µM (inactive)
same,GI50,EKVX,> 100 µM (inactive)
same,GI50,T47D,> 100 µM (inactive)
same,GI50,ACHN,> 100 µM (inactive)
same,GI50,RPMI-8226,> 100 µM (inactive)
same,GI50,U-251,> 100 µM (inactive)
same,GI50,SK-MEL-28,> 100 µM (inactive)
same,GI50,LOX IMVI,> 100 µM (inactive)
same,GI50,SR,> 100 µM (inactive)
same,GI50,K562,> 100 µM (inactive)
Nc1nc(NCCCO)cc(=O)[nH]1,GI50,KM12,> 100 µM (inactive)
same,GI50,Malme-3M,> 100 µM (inactive)
same,GI50,SF-268,> 100 µM (inactive)
same,GI50,M14,> 100 µM (inactive)
same,GI50,HL-60,> 100 µM (inactive)
same,GI50,OVCAR-8,> 100 µM (inactive)
same,GI50,HOP-62,> 100 µM (inactive)
same,GI50,A549,> 100 µM (inactive)
same,GI50,COLO 205,> 100 µM (inactive)
same,GI50,NCI-H226,> 100 µM (inactive)
same,GI50,MDA-MB-231,> 100 µM (inactive)
same,GI50,UACC-257,> 100 µM (inactive)
same,GI50,PC-3,> 100 µM (inactive)
same,GI50,HCT-15,> 100 µM
same,GI50,SNB-75,> 100 µM (inactive)
same,GI50,SK-MEL-5,> 100 µM (inactive)
same,GI50,NCI-H23,> 100 µM (inactive)
same,GI50,SF-295,> 100 µM (inactive)
same,GI50,786-0,> 100 µM (inactive)
same,GI50,OVCAR-5,> 100 µM (inactive)
same,GI50,MCF7,> 100 µM (inactive)
same,GI50,SNB-19,> 100 µM (inactive)
same,GI50,NCI/ADR-RES,> 100 µM (inactive)
same,GI50,DU-145,> 100 µM (inactive)
same,GI50,SN12C,> 100 µM (inactive)
same,GI50,A498,> 100 µM (inactive)
same,GI50,RXF 393,> 100 µM (inactive)
same,GI50,BT-549,> 100 µM (inactive)
same,GI50,UACC-62,> 100 µM (inactive)
same,GI50,HOP-92,> 100 µM (inactive)
same,GI50,HCC 2998,> 100 µM (inactive)
same,GI50,OVCAR-3,> 100 µM (inactive)
same,GI50,SK-OV-3,> 100 µM (inactive)
same,GI50,CCRF-CEM,> 100 µM (inactive)
same,GI50,HT-29,> 100 µM (inactive)
same,GI50,NCI-H522,> 100 µM (inactive)
same,GI50,IGROV-1,> 100 µM (inactive)
same,GI50,Hs-578T,> 100 µM (inactive)
same,GI50,NCI-H460,> 100 µM (inactive)
same,GI50,MDA-MB-435,> 100 µM (inactive)
same,GI50,MOLT-4,> 100 µM (inactive)
same,GI50,SW-620,> 100 µM (inactive)
same,GI50,UO-31,> 100 µM (inactive)
same,GI50,SK-MEL-2,> 100 µM (inactive)
same,GI50,CAKI-1,> 100 µM (inactive)
same,GI50,MDA-N,> 100 µM (inactive)
same,GI50,OVCAR-4,> 100 µM (inactive)
same,GI50,HCT-116,> 100 µM (inactive)
same,GI50,EKVX,> 100 µM (inactive)
same,GI50,T47D,> 100 µM (inactive)
same,GI50,ACHN,> 100 µM (inactive)
same,GI50,RPMI-8226,> 100 µM (inactive)
same,GI50,U-251,> 100 µM (inactive)
same,GI50,SK-MEL-28,> 100 µM (inactive)
same,GI50,LOX IMVI,> 100 µM (inactive)
same,GI50,SR,> 100 µM (inactive)
same,GI50,K562,> 100 µM (inactive)
COc1ccccc1NC(=O)CC(=O)N1N=C(C)C(/N=N/c2ccc(C(=O)O)cc2)C1=O (centres undefined),GI50,KM12,> 100 µM (inactive)
same,GI50,Malme-3M,> 100 µM (inactive)
same,GI50,SF-268,> 100 µM (inactive)
same,GI50,M14,> 100 µM (inactive)
same,GI50,HL-60,> 100 µM (inactive)
same,GI50,OVCAR-8,> 100 µM (inactive)
same,GI50,HOP-62,> 100 µM (inactive)
same,GI50,A549,> 100 µM (inactive)
same,GI50,COLO 205,> 100 µM (inactive)
same,GI50,MDA-MB-231,> 100 µM (inactive)
same,GI50,UACC-257,> 100 µM (inactive)
same,GI50,PC-3,> 100 µM (inactive)
same,GI50,HCT-15,> 100 µM
same,GI50,SNB-75,2.24 µM (inactive)
same,GI50,SK-MEL-5,> 100 µM (inactive)
same,GI50,NCI-H23,> 100 µM (inactive)
same,GI50,SF-295,> 100 µM (inactive)
same,GI50,786-0,> 100 µM (inactive)
same,GI50,OVCAR-5,> 100 µM (inactive)
same,GI50,MCF7,> 100 µM (inactive)
same,GI50,SNB-19,> 100 µM (inactive)
same,GI50,SF-539,> 100 µM (inactive)
same,GI50,NCI/ADR-RES,> 100 µM (inactive)
same,GI50,DU-145,> 100 µM (inactive)
same,GI50,SN12C,> 100 µM (inactive)
same,GI50,A498,> 100 µM (inactive)
same,GI50,RXF 393,> 100 µM (inactive)
same,GI50,BT-549,> 100 µM (inactive)
same,GI50,UACC-62,> 100 µM (inactive)
same,GI50,HOP-92,28.2 µM (inactive)
same,GI50,HCC 2998,> 100 µM (inactive)
same,GI50,OVCAR-3,> 100 µM (inactive)
same,GI50,CCRF-CEM,> 100 µM (inactive)
same,GI50,HT-29,23.8 µM (inactive)
same,GI50,TK-10,> 100 µM (inactive)
same,GI50,NCI-H522,> 100 µM (inactive)
same,GI50,IGROV-1,> 100 µM (inactive)
same,GI50,Hs-578T,> 100 µM (inactive)
same,GI50,MDA-MB-435,> 100 µM (inactive)
same,GI50,SW-620,> 100 µM (inactive)
same,GI50,UO-31,> 100 µM (inactive)
same,GI50,SK-MEL-2,> 100 µM (inactive)
same,GI50,CAKI-1,> 100 µM (inactive)
same,GI50,MDA-N,> 100 µM (inactive)
same,GI50,OVCAR-4,> 100 µM (inactive)
same,GI50,HCT-116,> 100 µM (inactive)
same,GI50,EKVX,28.6 µM (inactive)
same,GI50,T47D,> 100 µM (inactive)
same,GI50,ACHN,> 100 µM (inactive)
same,GI50,RPMI-8226,> 100 µM (inactive)
same,GI50,U-251,> 100 µM (inactive)
same,GI50,SK-MEL-28,> 100 µM (inactive)
same,GI50,LOX IMVI,> 100 µM (inactive)
same,GI50,SR,> 100 µM (inactive)
same,GI50,K562,> 100 µM (inactive)
